The values that follow are results of earlier work, collected in patent publication US20260200930A1, “PRODRUGS OF TEMOZOLOMIDE TO FACILITATE DELIVERY INTO BRAIN TUMORS” (H. LEE MOFFITT CANCER CENTER AND RESEARCH INSTITUTE, INC., priority 2022, published 2026).

The conditions of series [1]: oral chemotherapy; % of the highest plasma concentration.

With `Cn1nnc2c(C(N)=O)ncn2c1=O` [TMZ, temozolomide], the solubility in water entry is “insoluble in water”. Besides, the “brain concentration relative to highest plasma concentration that can safely be obtained” value in series [1] is recorded as “about 40%”.
